US6800659B2, “Compounds for modulating cell proliferation” (HSC Research and Development Limited Partnership, priority 2000, dated 2004)
Values belong to the molecule of their own block, whether it stands above or below them.

Assays:
normal bone marrow cells [1] = assay: CFU-GEMM assay: normal bone marrow differentiation in culture; assay type: cell-based; details: for inhibition of BFU-E colony formation: 20 μM
Method: (§1) The CFU-GEMM assay was performed according to Fauser and Messner (1978, Blood, 52(6) 143-8) and Messner and Fausser (1980, Blut, 41(5) 327-33) with some variations. In brief, heparinized bone marrow cells were layered over Percoll (1.077 gm/ml) (Pharmacia Fine Chemical, Piscataway N.J.) and centrifuged at 400 g at 4° C. for 10 minutes to remove neutrophils and RBCs. The fractionated BM cells at 2×10^5 cells/ml were cultured in IMDM (OCl, Toronto) containing 0.9% (vol/vol) methylcellulose supplemented with 30% FCS (Cansera Rexdale, ON.) or normal human plasma, a cocktail of cytokines containing G-CSF (10 ng/ml, Amgen), IL-3 (40 U/ml, Immunex), MGF (50 ng/ml, Immunex), Erythropoietin (2 u/ml, Epprex) or TPO (10 ng/ml, Amgen), 5×10^−5M β-2-mercaptoethanol and the specified concentration of CR4. The culture mixture was plated in 1 ml volumes into 35 mm petri dishes and incubated at 37° C., 5% CO2 in a humidified atmosphere. All cultures were evaluated at 14 days for the number of BFU-E colonies (defined as aggregates of more than 500 hemoglobinized cells or, 3 or more erythroid subcolonies), OFU-GM colonies (defined as granulocyte or monocyte-macrophage cells or both), CFU-Meg colonies (comprising 4 or more megakaryocytes) and CFU-GEMM colonies (a mixed population comprising of all elements).
as §1, with “1243-8)” for “143-8)”, “concentrations” for “concentration”, “CR19.” for “CR4.”, “hemaglobinized” for “hemoglobinized”, “subcolonies) and CFU-C” for “subcolonies), OFU-GM”, “both).” for “both), CFU-Meg colonies (comprising 4 or more megakaryocytes) and CFU-GEMM colonies (a mixed population comprising of all elements).”
as §1, with “1243-8)” for “143-8)”, “variations (British Journal of Haematology, 1992, 80, p40-48).” for “variations.”, “test compound.” for “CR4.”, “CO2,” for “CO2”, “subcolonies) and CFU-C” for “subcolonies), OFU-GM”, “both).” for “both), CFU-Meg colonies (comprising 4 or more megakaryocytes) and CFU-GEMM colonies (a mixed population comprising of all elements).”

[2] = tested on: Philadelphia positive acute lymphoblastic leukemia (Ph+ ALL) cells; assay: Colony growth of Philadelphia positive ALL cells in methylcellulose culture; assay type: cell-based, human
Method: (§2) Ph+ ALL cells were plated in 1 ml volumes, in the absence of exogenous growth factors, into 35 mm petri dishes (Nunc, Gibco) containing alpha MEM (Gibco) plus 10% FCS (Cansera Rexdale, ON.) in 0.9% (vol/vol) methylcellulose (Fluka, Switzerland) with the indicated concentrations of CR4. Cultures were set at 37° C., 5% CO2 in a humidified atmosphere. Colonies consisting of more than 20 cells were counted at 12 days or earlier using an inverted microscope.
as §2, with “ALL” for “Ph+ ALL”, “20%” for “10%”, “and” for “with”, “compound” for “CR4.”, “atmosphere” for “atmosphere.”
as §2, with “ALL” for “Ph+ ALL”, “20%” for “10%”, “ON)” for “ON.)”, “0.90%” for “0.9%”, “and” for “with”, “compound.” for “CR4.”
as §2, with “ALL” for “Ph+ ALL”, “20%” for “10%”, “and” for “with”, “CR24.” for “CR4.”, “9” for “12”
as §2, with “ALL” for “Ph+ ALL”, “20%” for “10%”, “and” for “with”, “CR19.” for “CR4.”, “9” for “12”

[3] = tested on: acute lymphoblastic leukemia, Philadelphia positive ALL, acute myeloid leukemia, myeloma and B-lineage lymphoma; assay: Growth of cancer cells in culture, summary over cell types; assay type: cell-based; details: for effectiveness against a variety of cell types (Acute Lymphoblastic Leukemia, Philadelphia positive Leukemia, Acute Myeloid Leukemia): in culture
normal bone marrow cells [4] = assay: In vitro purging of normal bone marrow, then colony assay; assay type: cell-based
Method: Heparinized bone marrow cells were layered over Percoll (1.077 gm/ml) (Pharmacia Fine Chemical, Piscataway N.J.) and centrifuged at 400 g at 4° C. for 10 minutes to remove neutrophils and RBCs.
For the purging process, the cells were resuspended at 1×10^6/ml in complete medium with or without 50 μM CR4. The cells were incubated with the CR4 for two and a half hours at 37° C., 5% CO2. At the end of this period the cells were thoroughly washed in medium to remove CR4 and then cultured at 2×10^5 cells/ml in IMDM (OCl, Toronto) containing 0.9% (vol/vol) methylcellulose supplemented with 30% FCS (Cansera Rexdale, ON.) or normal human plasma, a cocktail of cytokines containing G-CSF (10 ng/ml, Amgen), IL-3 (40 U/ml, Immunex), MGF (50 ng/ml, Immunex), Etryhropoietin (2 u/ml, Epprex) or TPO (10 ng/ml, Amgen) and 5×10^−5M b-2-mercaptoethanol. The culture mixture was plated in 1 ml volumes into 35 mm petri dishes and incubated at 37° C., 5% CO2 in a humidified atmosphere. All cultures were evaluated at 14 days for the number of BFU-E colonies (defined as aggregates of more than 500 hemaglobinized cells or, 3 or more erythroid subcolonies), CFU-C colonies (defined as granulocyte or monocyte-macrophage cells or both) and CFU-GEMM colonies (a mixed population comprising of all elements).
For the purging process, the cells were resuspended at 1×10^6/ml in complete medium with or without 50 μM CR11. The cells were incubated with the tryrphostin for seven hours at 37° C., 5% CO2. At the end of this period the cells were thoroughly washed in medium to remove CR11 and then cultured at 2×10^5 cells/ml in IMDM (OCl, Toronto) containing 0.9% (vol/vol) methylcellulose supplemented with 30% FCS (Cansera Rexdate, ON.) or normal human plasma, a cocktail of cytokines containing G-CSF (10 ng/ml, Amgen), IL-3 (40 U/ml, Immunex), MGF (50 ng/ml, Immunex), Erythropoietin (2 u/ml, Epprex) or TPO (10 ng/ml, Amgen) and 5×10^−5M β-2-mercaptoethanol. The culture mixture was plated in 1 ml volumes into 35 mm petri dishes and incubated at 37° C., 5% CO2 in a humidified atmosphere. All cultures were evaluated at 14 days for the number of BFU-E colonies (defined as aggregates of more than 500 hemoglobinized cells or, 3 or more erythroid subcolonies), CFU-C colonies (defined as granulocyte or monocyte-macrophage cells or both) and CFU-GEMM colonies (a mixed population comprising of all elements).

Ph+ ALL cells = assay: In vitro purging of Philadelphia positive ALL with CR11; assay type: cell-based, human; details: 50 μM, 7 hours exposure (FIG. 22)
Method: For the purging assay, the cells were resuspended in complete medium with or without CR11 as indicated and incubated at 37° C., 5% CO2 for 0-7 hours. Cells were then washed thoroughly with medium to remove the CR11, resuspended and plated in 1 ml volumes, in the absence of exogenous growth factors, into 35 mm petri dishes (Nunc, Gibco) containing alpha MEM (Gibco) plus 20% FCS (Cansera Rexdale, ON.) in 0.9% (vol/vol) methylcellulose (Fluka, Switzerland). Cultures were set at 37° C., 5% CO2 in a humidified atmosphere. Colonies consisting of more than 20 cells were counted at 9 days or earlier using an inverted microscope.

[5] = tested on: Philadelphia positive ALL, AML and lymphoma; assay: High dose in vitro (ex vivo) purging assays, summary; assay type: cell-based
Text: […] Cancer cell death was effected by the induction of apoptosis. Accordingly, in another aspect of the invention, there is provided a method for killing cancer cells by ex vivo treatment of bone marrow from a patient with cancer with a compound of the invention, preferably CR4 and CR11 and then re-introducing the treated (or purged) bone marrow into the patient.

[6] = low nanomolar doses, long term exposure

SMILES: N#C/C(=C\C=C\c1ccc(O)c(O)c1)C(N)=O [CR17, (E,E)-2-Aminocarbonyl-3-(3,4-dihydroxystyryl)acrylonitrile]
inhibition of BFU-E colony formation (normal bone marrow cells [1]; 14 days (FIG. 13)): caused inhibition
inhibition of cell growth ([2]; 1-2.5 μM, Example 42, FIG. 8): significant inhibition
inhibition of cell growth ([2]; 1-2.5 μM, Example 43, FIG. 9): significant inhibition

SMILES: COc1cc(/C=C/C=C(\C#N)C(=O)NCc2ccc(O)c(O)c2)cc(OC)c1O [CR11, (EE)-2-(3,4-Dihydroxybenzylaminocarbonyl)-3-(3,5-dimethoxy-4-hydroxystyryl)acrylonitrile]
BFU-E, CFU-GEMM and CFU-C colonies (normal bone marrow cells [4]; seven hours exposure to 50 μM (FIG. 21)): all normal
inhibition of colony formation (normal bone marrow cells [4]; seven hours exposure to 50 μM, colonies at 14 days (FIG. 21)): did not result in any significant inhibition
effectiveness against a variety of cell types (Acute Lymphoblastic Leukemia, Philadelphia positive Leukemia, Acute Myeloid Leukemia) [3]: highly effective
killing of Ph+ ALL cells (Ph+ ALL cells): complete killing
effectiveness as ex vivo purging agents [5]: effective

Further lines, with some results ahead:

inhibition of BFU-E colony formation (normal bone marrow cells [1]; 14 days (FIG. 13)): caused inhibition
SMILES: N#C/C(=C\C=C\c1ccc(O)c(O)c1)C(=O)NCc1ccc(O)c(O)c1 [CR21, (E,E)-2(3,4-Dihydroxybenzylaminocarbonyl)-3-(3,4-dihydroxystyryl)acrylonitrile]
inhibition of cell growth ([2]; 5 μM, Example 42, FIG. 8): inhibited cell growth
inhibition of cell growth ([2]; 1-2.5 μM, Example 43, FIG. 9): significant inhibition

inhibition of bone marrow colony formation (normal bone marrow cells [1]; either 10 or 20 μM, 14 days (FIG. 13)): minimal inhibition
SMILES: COc1cc(/C=C/C=C(\C#N)C(=O)NCCO)cc(OC)c1O [CR24, (E,E)-2-(β-Ethanolaminocarbonyl)-3-(3,5-dimethoxy-4-hydroxystyryl)acrylonitrile]
inhibition of cell growth ([2]; between 2.5 and 5 μM, colonies at 9 days (FIG. 10)): virtually complete inhibition
effectiveness against Ph+ ALL cells ([2]; concentrations as low as 0.5 μM, colonies at 9 days (FIG. 10)): effective

inhibition of the development of BFU-E colonies (normal bone marrow cells [1]; 2.5 μM, 14 days (FIG. 12)): significant inhibition
BFU-E colonies (normal bone marrow cells [1]; 5 μM, 14 days (FIG. 12)): virtually absent
SMILES: N#C/C(=C\C=C\c1ccccc1)C(=O)NCc1ccc(O)c(O)c1 [CR19, (E,E)-2-(3,4-Dihydroxybenzylaminocarbonyl)-3-styrylacrylonitrile]
CFU-C colony formation (normal bone marrow cells [1]; 2.5 μM, 14 days (FIG. 12)): boosted
CFU-C colony formation (stimulatory effect) (normal bone marrow cells [1]; 5 μM, 14 days (FIG. 12)): stimulatory effect disappeared
normal cell growth and differentiation (normal bone marrow cells [1]; [6]): unaffected
effectiveness against Ph+ ALL cells ([2]; nanomolar concentrations, colonies at 9 days (FIG. 11)): highly effective
effectiveness against a variety of cell types (Acute Lymphoblastic Leukemia, Philadelphia positive Leukemia, Acute Myeloid Leukemia) [3]: highly effective
toxicity to cancer cells [3, 6]: highly toxic
